From patent US10294202B2, “Pyrrolidinones as herbicides” (FMC Corporation, priority 2013, dated 2019)
Where two headings read alike, the source gives them in different places.

What was measured:
waterhemp = test: Test C pre-/postemergence herbicide test; format: in vivo, Amaranthus rudis
In short: (§1)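 Test compounds, formulated in a surfactant-containing non-phytotoxic solvent blend, are applied to seeded loam/sand soil (preemergence) and to young plants at the 1- to 4-leaf stage in peat-based medium (postemergence). Plants stay 13 to 15 days under greenhouse conditions, then are scored visually relative to controls, 0 = no effect, 100 = complete control.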

barnyardgrass [1] = test: Test B flooded paddy test; format: in vivo, Echinochloa crus-galli; conditions: Flood, scale of 0 to 100 where 0 is no effect and 100 is complete control
In short: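 In-water application to pots flooded 3 cm deep, plants at 2-leaf stage. Held in greenhouse 13–15 days at constant flood depth. Scored 0–100 by eye against controls.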

oilseed rape = test: Test C pre-/postemergence herbicide test; format: in vivo, Brassica napus
In short: as §1

galium = test: Test A postemergence herbicide test; format: in vivo, Galium aparine
In short: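 Young potted plants in a loam–sand mix, one- to two-leaf stage and 2–10 cm tall, receive the test chemical postemergence and stay in a greenhouse for approximately 10 days. Injury is then judged by eye against untreated plants, scored 0 (none) to 100 (complete control).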

barnyardgrass [2] = test: Test A pre-/postemergence herbicide test; format: in vivo, Echinochloa crus-galli; conditions: for pest or weed control at 500 g/ha: 0 to 100 scale (0 no effect, 100 complete control)
In short: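 Planted in loam–sand blend; treated the same day preemergence by directed soil spray, while separately grown plants at one- to two-leaf stage got postemergence spray. Compared visually with untreated controls after approximately 10 days; 100 means complete control.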

foxtail, giant = test: Test C pre-/postemergence herbicide test; format: in vivo, Setaria faberii
In short: as §1

soybean = test: Test C pre-/postemergence herbicide test; format: in vivo, Glycine max
In short: as §1

[3] = Postemergence, 31 g ai/ha, scale 0 to 100 (0 no effect, 100 complete control)
[4] = Postemergence, 62 g ai/ha, scale 0 (no effect) to 100 (complete control)
[5] = Postemergence, 125 g ai/ha, scale 0 to 100 (0 no effect, 100 complete control)
[6] = Postemergence, 250 g ai/ha, scale 0 to 100 (0 no effect, 100 complete control)
[7] = Preemergence, 31 g ai/ha, scale 0 to 100, 0 is no effect and 100 is complete control
[8] = Preemergence, 62 g ai/ha, scale 0 to 100 (0 no effect, 100 complete control)
[9] = Preemergence, 125 g ai/ha, scale 0 to 100 (0 no effect, 100 complete control)
[10] = Postemergence, 31 g ai/ha, scale 0 (no effect) to 100 (complete control)
[11] = Postemergence, 62 g ai/ha, scale 0 to 100 (0 no effect, 100 complete control)
[12] = Preemergence, 62 g ai/ha, scale 0 to 100

| SMILES | Plant response rating, Waterhemp (waterhemp; [5]) | Plant response rating, Waterhemp (waterhemp; [6]) | Waterhemp plant response rating (waterhemp; [7]) | Plant response rating, Waterhemp (waterhemp; [9]) | Plant response rating (scale of 0 to 100), Waterhemp (waterhemp; Preemergence, 250 g ai/ha) | Plant response rating, Oilseed Rape (oilseed rape; [5]) | Plant response rating, Oilseed Rape (oilseed rape; [6]) | Oilseed Rape plant response rating (oilseed rape; [7]) | Plant response rating, Oilseed Rape (oilseed rape; [9]) | Plant response rating (scale of 0 to 100), Oilseed Rape (oilseed rape; Preemergence, 250 g ai/ha) | Plant response rating, Foxtail, Giant (foxtail, giant; [5]) | Plant response rating, Foxtail, Giant (foxtail, giant; [6]) | Foxtail, Giant plant response rating (foxtail, giant; [7]) | Plant response rating, Foxtail, Giant (foxtail, giant; [9]) | Plant response rating (scale of 0 to 100), Foxtail, Giant (foxtail, giant; Preemergence, 250 g ai/ha) | Plant response rating, Soybean (soybean; [5]) | Plant response rating, Soybean (soybean; [6]) | Soybean plant response rating (soybean; [7]) | Plant response rating, Soybean (soybean; [9]) | Plant response rating (scale of 0 to 100), Soybean (soybean; Preemergence, 250 g ai/ha) | further results |
| --- | --- | --- | --- | --- | --- | --- | --- | --- | --- | --- | --- | --- | --- | --- | --- | --- | --- | --- | --- | --- | --- |
| O=C1NCC(c2ccc(C(F)(F)F)cc2)C1C(=O)Nc1cccc(F)c1F (racemic) [Compound 202] | 75 | 85 | 85 | 100 | 100 | 50 | 50 | 25 | 85 | 90 | 70 | 85 | 90 | 95 | 98 | 5 | 10 | 0 | 0 | 10 | Plant response rating, Waterhemp (waterhemp; [3]): 60; Plant response rating, Waterhemp (waterhemp; [4]): 65; Waterhemp plant response rating (waterhemp; [8]): 95; Plant response rating, Barnyardgrass (barnyardgrass [1]; 500 g ai/ha): 65; Plant response rating, Oilseed Rape (oilseed rape; [3]): 0; Plant response rating, Oilseed Rape (oilseed rape; [4]): 0; Oilseed Rape plant response rating (oilseed rape; [8]): 80; Plant response rating, Galium (galium; 125 g ai/ha, 0 to 100 scale, 0 is no effect, 100 is complete control): 60; Galium plant response rating (0 to 100 scale, 0 is no effect, 100 is complete control) (galium; 500 g ai/ha): 60; Plant response rating, Barnyardgrass (barnyardgrass [2]; 125 g ai/ha, visual rating, 0 to 100 scale, 0 no effect, 100 complete control, approximately 10 days, preemergence): 90; Plant response rating, Barnyardgrass (barnyardgrass [2]; Postemergence, 125 g ai/ha, 0 to 100 scale, 0 is no effect, 100 is complete control): 80; Barnyardgrass plant response rating (0 to 100 scale, 0 is no effect, 100 is complete control) (barnyardgrass [2]; Postemergence, 500 g ai/ha): 90; Plant response rating, Barnyardgrass (barnyardgrass [2]; preemergence, 500 g ai/ha, 0 to 100 scale, 0 is no effect and 100 is complete control): 90; Plant response rating, Foxtail, Giant (foxtail, giant; [3]): 5; Plant response rating, Foxtail, Giant (foxtail, giant; [4]): 25; Foxtail, Giant plant response rating (foxtail, giant; [8]): 90; Plant response rating, Soybean (soybean; [3]): 0; Plant response rating, Soybean (soybean; [4]): 0; Soybean plant response rating (soybean; [8]): 25 |
| O=C1NCC(c2ccc(C(F)(F)F)cc2)C1C(=O)Nc1cccc(F)c1F (stereo not shown) [Compound 80, N-(2,3-difluorophenyl)-2-oxo-4-[4-(trifluoromethyl)phenyl]-3-pyrrolidinecarboxamide] | 45 | 65 | 15 | 90 | 90 | 20 | 60 | 5 | 90 | 90 | 45 | 45 | 90 | 98 | 98 | 5 | 25 | 0 | 0 | 0 | Plant response rating, Waterhemp (waterhemp; [10]): 30; Plant response rating, Waterhemp (waterhemp; [11]): 45; Plant response rating, Waterhemp (waterhemp; [12]): 80; Plant response rating, Barnyardgrass (barnyardgrass [1]; 250 g ai/ha): 30; Plant response rating, Oilseed Rape (oilseed rape; [10]): 0; Plant response rating, Oilseed Rape (oilseed rape; [11]): 0; Plant response rating, Oilseed Rape (oilseed rape; [12]): 85; pest or weed control at 125 g/ha (barnyardgrass [2]; Echinochloa crus-galli, post-emergence, 240 h, Postemergence, 125 g ai/ha, 0 to 100 scale, 0 no effect, 100 complete control, read-out: Plant response rating, Barnyardgrass): 80%; pest or weed control at 500 g/ha (barnyardgrass [2]; Echinochloa crus-galli, post-emergence, 240 h, Postemergence, 500 g ai/ha, read-out: Plant response rating, Barnyardgrass): 80%; pest or weed control at 500 g/ha (barnyardgrass [2]; Echinochloa crus-galli, pre-emergence, 240 h, preemergence, 500 g ai/ha, read-out: Plant response rating, Barnyardgrass): 80%; Barnyardgrass plant response rating (barnyardgrass [2]; Preemergence, 125 g ai/ha, visual rating on 0 to 100 scale (0 no effect, 100 complete control)): 80; Plant response rating, Foxtail, Giant (foxtail, giant; [10]): 0; Plant response rating, Foxtail, Giant (foxtail, giant; [11]): 0; Plant response rating, Foxtail, Giant (foxtail, giant; [12]): 95; Plant response rating, Soybean (soybean; [10]): 0; Plant response rating, Soybean (soybean; [11]): 5; Plant response rating, Soybean (soybean; [12]): 0 |
